Here are results for 3 compounds from patent US8623414B2, “Compositions comprising a lipid and copolymer of styrene and maleic acid” (Malvren Cosmeceutics Limited, priority 2005, dated 2014).

Series [1] is described as follows: Example 5: compositions of the invention to solubilise exemplary active agents (visual clarity, pH on clearing, clarity at pH 7). The note with it: SMA 3000HNa 2.5%, 90H 1%, S LPC 0.01%, active agent 0.1%.
Protocol: A stock emulsion of cosurfactant, membrane forming lipid and active was prepared at double the desired final concentration. Cosurfactant was dissolved in water while heating (approximately 50° C.) and stirring. Lipid was then added, followed by continued stirring and heating until a uniform emulsion is formed. The emulsion was then homogenised for 10 minutes. After re-heating to approximately 50° C. the active component was added slowly under stirring until a uniform emulsion was present. The final emulsion was then homogenised for a further 10 minutes.
Stock solutions were prepared by mixing of the hydrolysed polymer with the appropriate volume of water.
Polymer/lipid mixtures were then prepared by the dropwise addition of the lipid containing emulsion to an equal volume of polymer solution while stirring and heating to approximately 50° C.
The pH of the mixtures was adjusted to determine the critical pH level at which macromolecular assemblies formed, and whether the resulting clear and colourless solution would remain at physiological pH.
Percentage values specified in this experiment refer to the weight of the component in question as a proportion of the total weight of the composition.
Mixtures were visually examined to determine whether the polymer/lipid assemblies had solubilised the active agent in the aqueous medium. The clarity of a mixture was categorised as being clear if there was no significant visible opacity to the naked eye, whereas a mixture was categorised as cloudy if there was significant visible disruption to the passage of light.
Series [2] in a line: Example 7: cosmetic gel preparation of Asc-P, clarity at pH 7. In kind it is physicochemical. The note with it: Solution A (hydrolysed SMA3000P 2.5%, 90H 1.0%, S-LPC 0.01%, Asc-P 0.1%, Phenonip 0.1%) mixed 1:1 with xanthan gum/carbopol gel. As for the experimental part: The emulsion was then homogenised for 10 minutes.
Preservative was then added to the solution and the pH adjusted.
Xanthan gum and carbopol were mixed with water and stirred until a uniform gel was formed. The pH was then adjusted to 7.
Solution A and Solution B were then mixed in equal volumes to produce the final preparation.

As for `CCCCCCCCC(CCCCCC)C(=O)OC[C@H](OC(=O)C(CCCCCC)CCCCCCCC)[C@H]1OC(=O)C(OC(=O)C(CCCCCC)CCCCCCCC)=C1OC(=O)C(CCCCCC)CCCCCCCC` (stereo partly drawn) [VC-IP], in series [1], the Clarity entry was “Clear”, the “Clarity at pH 7” value is recorded as “Clear” and the pH on clearing worked out at 8.89.
As to `CCCCCCCCCCCCCCCC(=O)OC[C@H](O)[C@H]1OC(=O)C(O)=C1O` [Asc-P, L-ascorbyl palmitate], in series [1], the “Clarity at pH 7” value was “Clear” and the pH on clearing came out at 8.87. Also, the “Appearance of cosmetic preparation” value in series [2] is “clear and colourless aqueous gel”.
With Ceramide IIIA, in series [1], the Clarity entry is reported as “Clear”, the “Clarity at pH 7” value is listed as “Clear” and the pH on clearing is on record as 8.89.
